Test: Evaluation of the plasma half-life for Hydrochlorothiazide for at least 24 hours following administration of Hydrochlorothiazide
Assay type: ADME, organism-based
Details: human; dosed compound id 30, dosed compound name HYDROCHLOROTHIAZIDE, tissue Plasma

- half-life: 5.6 to 14.8 h
SMILES: NS(=O)(=O)c1cc2c(cc1Cl)NCNS2(=O)=O [HYDROCHLOROTHIAZIDE]
